Data reported in publication PMC4750701, “Role of Mitochondrial RNA Polymerase in the Toxicity of Nucleotide Inhibitors of Hepatitis C Virus” (Antimicrobial Agents and Chemotherapy, 2016).

Key:
[1] = target: T1, Recombinant human DNA polymerase gamma (Homo sapiens, UniProt P54098); assay: Inhibition of human DNA polymerase gamma; assay type: biochemical; details: triphosphate form of the compound tested; read-out: Mean IC50 ± SD for DNA Pol γ
T1 construct: made in house; host or cells: insect cells
T1 sequence (P54098 1-1239): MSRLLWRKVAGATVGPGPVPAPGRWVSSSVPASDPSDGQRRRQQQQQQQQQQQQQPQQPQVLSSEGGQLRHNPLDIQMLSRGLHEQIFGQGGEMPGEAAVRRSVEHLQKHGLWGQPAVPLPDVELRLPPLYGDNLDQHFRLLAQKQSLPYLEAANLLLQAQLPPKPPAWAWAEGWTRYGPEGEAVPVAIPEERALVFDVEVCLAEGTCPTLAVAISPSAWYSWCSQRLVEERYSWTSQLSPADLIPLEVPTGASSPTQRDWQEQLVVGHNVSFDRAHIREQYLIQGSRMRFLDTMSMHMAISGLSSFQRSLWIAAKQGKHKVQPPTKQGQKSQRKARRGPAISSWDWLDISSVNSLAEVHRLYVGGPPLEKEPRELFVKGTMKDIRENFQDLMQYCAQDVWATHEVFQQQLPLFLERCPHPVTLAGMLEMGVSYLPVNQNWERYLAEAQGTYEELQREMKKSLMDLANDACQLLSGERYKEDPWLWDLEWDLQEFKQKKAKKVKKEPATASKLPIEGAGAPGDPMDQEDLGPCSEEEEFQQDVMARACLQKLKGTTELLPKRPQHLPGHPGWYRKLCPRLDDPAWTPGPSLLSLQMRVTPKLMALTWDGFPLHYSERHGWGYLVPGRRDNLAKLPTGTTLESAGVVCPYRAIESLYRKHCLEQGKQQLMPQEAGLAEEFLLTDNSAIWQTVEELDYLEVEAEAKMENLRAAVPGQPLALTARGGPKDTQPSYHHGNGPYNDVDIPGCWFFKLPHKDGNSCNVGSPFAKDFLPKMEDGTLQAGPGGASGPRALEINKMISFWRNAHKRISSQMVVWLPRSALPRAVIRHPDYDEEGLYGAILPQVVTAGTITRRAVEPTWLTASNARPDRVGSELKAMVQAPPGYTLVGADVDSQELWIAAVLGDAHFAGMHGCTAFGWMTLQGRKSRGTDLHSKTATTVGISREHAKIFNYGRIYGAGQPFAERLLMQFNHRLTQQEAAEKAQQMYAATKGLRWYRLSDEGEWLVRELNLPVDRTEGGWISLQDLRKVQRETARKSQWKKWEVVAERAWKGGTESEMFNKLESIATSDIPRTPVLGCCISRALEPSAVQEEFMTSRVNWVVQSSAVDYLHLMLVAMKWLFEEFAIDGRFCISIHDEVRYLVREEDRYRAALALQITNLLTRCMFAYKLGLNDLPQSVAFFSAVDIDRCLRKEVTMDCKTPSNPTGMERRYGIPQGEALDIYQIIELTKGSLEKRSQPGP
T1 sequence (Q9UHN1 26-485 partner limits assumed): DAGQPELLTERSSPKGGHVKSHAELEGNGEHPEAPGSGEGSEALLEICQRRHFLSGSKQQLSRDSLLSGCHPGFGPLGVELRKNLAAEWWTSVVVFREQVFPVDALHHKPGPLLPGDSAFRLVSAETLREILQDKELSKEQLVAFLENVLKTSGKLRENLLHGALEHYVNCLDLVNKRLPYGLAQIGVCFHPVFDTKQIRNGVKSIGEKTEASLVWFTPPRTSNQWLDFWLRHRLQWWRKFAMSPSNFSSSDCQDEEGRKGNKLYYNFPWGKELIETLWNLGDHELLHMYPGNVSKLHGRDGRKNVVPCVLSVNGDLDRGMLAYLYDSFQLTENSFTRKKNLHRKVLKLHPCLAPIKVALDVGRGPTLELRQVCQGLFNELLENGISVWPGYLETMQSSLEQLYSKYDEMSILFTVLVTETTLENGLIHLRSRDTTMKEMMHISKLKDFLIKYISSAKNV
Text: Activated fish sperm DNA was purchased from USB/Affymetrix (Santa Clara, CA) and used as a template for the DNA polymerases alpha, beta, and gamma. The DNA template used in the RNA Pol II assay was a 1,188-bp restriction fragment containing the cytomegalovirus (CMV) immediate early promoter (Promega, Madison, WI). The RNA and DNA oligonucleotides used in the mitochondrial RNA polymerase assay (see Table S1 in the supplemental material) were synthesized and PAGE purified by Thermo Scientific/Dharmacon (Lafayette, CO). RNA primer R12 was 5′-^32P-phosphorylated with [γ-^32P]ATP (3,000 Ci/mmol) and T4 kinase (New England BioLabs, Ipswich, MA).
Human DNA polymerase alpha, isolated from HeLa cell extracts, was from CHIMERx (Madison, WI). Recombinant human DNA polymerase beta, expressed in E. coli, was a gift from Zucai Suo at The Ohio State University. Recombinant human DNA polymerase gamma (including both the large subunit and the small subunit) was cloned, expressed, and purified from insect cells by Gilead Sciences (Foster City, CA) ([13]). RNA PolII was purchased as part of the HeLaScribe nuclear extract in vitro transcription system kit from Promega (Madison, WI). The recombinant human PolRMT and the transcription factors mitochondrial transcription factor A (mtTFA) and B2 (mtTFB2) were purchased from Enzymax (Lexington, KY). FLAG epitope-tagged RNA PolI and PolIII complexes were isolated from rat NSN1 cells and HeLa cells, respectively ([17], [18]). The inhibition of DNA polymerases alpha, beta, and gamma, PolRMT, and PolII and the rate of single-nucleotide incorporation by PolRMT have been described previously in detail ([12], [13], [19]). Inhibition of RNA PolI and PolIII was studied using published methods ([20], [21]). All concentrations were final unless noted otherwise. For the RNA PolI inhibition assay, a reaction mixture containing 50 mM HEPES (pH 7.9), 20% glycerol, 100 mM KCl, 1 mM dithiothreitol (DTT), 50 μg/ml calf thymus DNA, 4 mM MgCl2, 5 or 80 μM UTP (0.25 μl of [5,6-^3H]UTP, >25 Ci/mmol; PerkinElmer), 1 mM noncompeting NTP, competing NTP (5 μM for GTP, CTP, and UTP and 25 μM for ATP), and various concentrations (0 to 500 μM) of NTP analogs was preincubated at 30°C for 5 min. […] After incubation at 30°C for 20 min to 1 h, the reactions were terminated by pipetting the mixtures onto DEAE-cellulose discs (DE81; Whatman), and the products analyzed as described previously ([20], [21]).

[2] = tested on: mitochondrial DNA-encoded cytochrome c oxidase (COX-1; complex IV) protein level; assay: Mitochondrial protein synthesis assay (COX-1, MitoBiogenesis in-cell ELISA) in PC-3 cells; assay type: cell-based, human; details: human; PC-3 cells, COX-1, 5 days; read-out: Mean CC50 ± SD causing Mitochondrial toxicity: Protein synthesis
In short: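 PC-3 cells were exposed to compound for 5 days. Protein levels of nuclear-encoded SDH-A and mitochondrial-encoded COX-1 were then quantified by in-cell ELISA (quantitative immunocytochemistry).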

SMILES | IC50 [1] [µM] | CC50 at 5 days [2] [µM] | CC50 [2] [µM]
C[C@@]1(O)[C@H](O)[C@@H](COP(=O)(O)OP(=O)(O)OP(=O)(O)O)O[C@H]1n1cnc2c(=O)[nH]c(N)nc21 [2′CMeGTP] | > 200 | – | –
COc1nc(N)nc2c1ncn2[C@@H]1O[C@H](COP(=O)(N[C@@H](C)C(=O)OCC(C)(C)C)Oc2cccc3ccccc23)[C@@H](O)[C@@]1(C)O (some centres unmarked) [BMS-986094] | – | – | 0.68 ± 0.1
C[C@@]1(O)[C@H](O)[C@@H](CO)O[C@H]1n1ccc(N)nc1=O [2′CMeC, 2′-C-methyl (2′CMe) cytidine] | > 200 | 50 ± 25 | –
CC(C)OC(=O)[C@H](C)N[P@](=O)(OC[C@H]1O[C@@H](n2ccc(=O)[nH]c2=O)[C@](C)(F)[C@@H]1O)Oc1ccccc1 [Sofosbuvir] | > 200 | > 100 | –
[N-]=[N+]=N[C@]1(CO)O[C@@H](n2ccc(N)nc2=O)[C@H](O)[C@@H]1O [4′-AzidoC, 4′-azido cytidine] | > 200 | 11 ± 3 | –
CC(C)OC(=O)[C@H](C)N[P@](=O)(OC[C@H]1O[C@@](C#N)(c2ccc3c(N)ncnn23)[C@](C)(O)[C@@H]1OC(=O)C(C)C)Oc1ccccc1 [GS-6620] | > 200 | – | 31 ± 5

Continued, in another order:

IC50 [1] [µM] | SMILES | CC50 at 5 days [2] [µM] | CC50 [2] [µM]
> 200 | C[C@@]1(F)[C@H](O)[C@@H](CO)O[C@H]1n1ccc(N)nc1=O [PSI-6130] | 70 ± 14 | –
> 200 | CCOc1nc(N)nc2c1ncn2[C@@H]1O[C@@H]2COP(=O)(OC(C)C)O[C@H]2[C@@]1(C)F (some centres unmarked) [PSI-938] | > 100 | –
